Assay results as given in US20260224658A1, “PRODUCTS AND METHODS FOR THE DIAGNOSIS AND TREATMENT OF P[…]” (priority 2023, published 2026).
≈ marks a conversion by molar mass, not a printed value.

Assays:
Format in all cases: cell-based, Pseudomonas aeruginosa
MPAO1 [1] = experiment: microbe, parasite or virus in culture; settings: strain MPAO1; for MIC: Pseudomonas aeruginosa, read-out: MIC, average of triplicates
Description: (§1) MIC experiments were performed using biological triplicates.

PAO1 = experiment: microbe, parasite or virus in culture; settings: strain PAO1; for MIC: Pseudomonas aeruginosa, read-out: MIC, average of triplicates
Description: as §1

MPAO1-ΔmutS [2] = experiment: In vitro adaptive evolution (serial passaging) with MIC determination; settings: for MIC: Pseudomonas aeruginosa
Description: (§2) MICs were determined via microbroth dilution assay in 96-well culture plates with 2-fold serial dilutions of tested antibiotic in Mueller-Hinton (cation-adjusted) broth, inoculated with 50 μL of 2.75×10^5 CFU/mL of each bacterial strain and incubated at 37° C., 200 rpm for 24 hours. MIC experiments were performed using biological triplicates.
(§3) Serial passaging of bacterial strains was performed in 96-well culture plates with 2-fold serial dilutions of antibiotic in MH broth, inoculated with 50 μL 2.75×10^5 CFU/mL of each strain and incubated at 37° C., 200 rpm for 24 hours. […] The bacteria were then serially passaged in the same antibiotic and MIC determined for all antibiotics (aztreonam, ciprofloxacin, D-CONGA, D-CONGA-Q7, polymyxin B). See Antimicrobial susceptibility testing section. The bacteria were serially passaged a total of 10 times.
(§4) All resistance acquisition data was analyzed in units of fold-change to normalize for differences in starting MIC across strains. Fold-change in MIC data for all strains and treatment groups was natural log-transformed and simple linear regression was performed considering each replicate fold-change value as an individual point. Slope, standard error of slope, and total number of values of each treatment group of interest were analyzed via unpaired t-test (ΔmutS vs WT) or ordinary one-way ANOVA (cross-resistance acquisition of ΔmutS+AB vs −AB vs WT), and α-values were corrected for multiple comparisons using the Bonferroni method. Differences in estimated mutation rate across treatment groups were determined via ordinary one-way ANOVA (Brown-Forsythe test). For all statistical tests, p<0.05 was considered significant. All figures were created and statistical tests were done using GraphPad Prism 9.3.1.

MPAO1 [3] = experiment: as above; settings: for MIC: Pseudomonas aeruginosa
Description: as §2, §3, §4

MPAO1-ΔmutS [4] = experiment: MIC, microbroth dilution assay; settings: for MIC: Pseudomonas aeruginosa, read-out: MIC, average of triplicates
Description: as §1

MPAO1-ΔmutL [5] = experiment: MIC, microbroth dilution assay; settings: for MIC: Pseudomonas aeruginosa, read-out: MIC, average of triplicates
Description: as §1

MPAO1-ΔmutL [6] = experiment: In vitro adaptive evolution (serial passaging) with MIC determination
Description: as §2, §3, §4

[7] = MPAO1-ΔmutS evolved in AZ + COL
[8] = MPAO1-ΔmutS evolved in AZ + D-CONGA
[9] = MPAO1-ΔmutS evolved in AZ + D-CONGA-Q7
[10] = MPAO1-ΔmutS evolved in D-CONGA-Q7
[11] = MPAO1-ΔmutS passaged with No Antibiotic (Table 4)
[12] = MPAO1-ΔmutS passaged with No Antibiotic (Table 8)
[13] = MPAO1 evolved in AZ + D-CONGA-Q7
[14] = MPAO1 passaged with No Antibiotic (Table 4)
[15] = MPAO1 passaged with No Antibiotic (Table 8)
[16] = MPAO1-ΔmutL evolved in Chl + Str
[17] = MPAO1-ΔmutL passaged with No Antibiotic

In the case of `O=C(O)c1cn(C2CC2)c2cc(N3CCNCC3)c(F)cc2c1=O` [Ciprofloxacin], the MIC (MPAO1 [1]) was 0.5 µg/mL (≈ 1.51 µM), the MIC (PAO1) was 0.25 µg/mL (≈ 0.754 µM) and the MIC (MPAO1-ΔmutS [2]; read-out: Average MIC at end point, MPAO1-ΔmutS evolved in AZ) was 4 µg/mL (≈ 12.1 µM). The MIC (MPAO1-ΔmutS [2]; read-out: Average MIC at end point, MPAO1-ΔmutS evolved in AZ + COL) was 2 µg/mL, the MIC (MPAO1-ΔmutS [2]; read-out: Average MIC at end point, MPAO1-ΔmutS evolved in AZ + D-CONGA) was 0.8 µg/mL and the MIC (MPAO1-ΔmutS [2]; read-out: Average MIC at end point, MPAO1-ΔmutS evolved in AZ + D-CONGA-Q7) was 0.7 µg/mL. It also gave an MIC (MPAO1-ΔmutS [2]; read-out: Average MIC at end point, MPAO1-ΔmutS evolved in Chl) of 8 µg/mL (≈ 24.1 µM), an MIC (MPAO1 [3]; read-out: Average MIC at end point, MPAO1 evolved in AZ) of 0.25 µg/mL (≈ 0.754 µM) and an MIC (MPAO1 [3]; read-out: Average MIC at end point, MPAO1 evolved in AZ + COL) of 2 µg/mL. The MIC (MPAO1 [3]; read-out: Average MIC at end point, MPAO1 evolved in AZ + D-CONGA) was 0.7 µg/mL, the MIC (MPAO1 [3]; read-out: Average MIC at end point, MPAO1 evolved in AZ + D-CONGA-Q7) was 0.8 µg/mL and the MIC (MPAO1 [3]; read-out: Average MIC at end point, MPAO1 evolved in COL) was 2 µg/mL (≈ 6.04 µM). For the same compound, the MIC (MPAO1 [3]; read-out: Average MIC at end point, MPAO1 evolved in Chl) was 1 µg/mL (≈ 3.02 µM), the MIC (MPAO1 [3]; read-out: Average MIC at end point, MPAO1 evolved in Chl + Str) was 2 µg/mL and the MIC (MPAO1 [3]; read-out: Average MIC at end point, MPAO1 evolved in D-CONGA) was 1 µg/mL (≈ 3.02 µM). For the same compound, the MIC (MPAO1 [3]; read-out: Average MIC at end point, MPAO1 evolved in D-CONGA-Q7) was 0.75 µg/mL (≈ 2.26 µM), the MIC (MPAO1 [3]; read-out: Average MIC at end point, MPAO1 passaged with No Antibiotic (Table 4)) was 2 µg/mL (≈ 6.04 µM) and the MIC (MPAO1 [3]; read-out: Average MIC at end point, MPAO1 passaged with No Antibiotic (Table 8)) was 0.8 µg/mL (≈ 2.41 µM). The MIC (MPAO1-ΔmutS [4]) was 1 µg/mL (≈ 3.02 µM) and the MIC (MPAO1-ΔmutL [5]) was 0.3 µg/mL (≈ 0.905 µM).
`[H]/N=C(/N)N[C@H]1[C@H](O)[C@@H](O)[C@H](O[C@@H]2O[C@@H](C)[C@](O)(C=O)[C@H]2O[C@@H]2O[C@@H](CO)[C@H](O)[C@@H](O)[C@@H]2NC)[C@@H](N/C(N)=N\[H])[C@@H]1O` [Streptomycin] gave an MIC (MPAO1 [1]) of 8 µg/mL (≈ 13.8 µM), an MIC (PAO1) of 21 µg/mL (≈ 36.1 µM) and an MIC (MPAO1-ΔmutS [4]) of 32 µg/mL (≈ 55 µM). It also gave an MIC (MPAO1-ΔmutL [5]) of 43 µg/mL (≈ 73.9 µM).
In the case of Polymyxin B, the “MIC, average of triplicates” value (MPAO1 [1]) was 2 µg/mL, the “MIC, average of triplicates” value (PAO1) was 2 µg/mL and the “Average MIC at end point” value (MPAO1-ΔmutS [2]; MPAO1-ΔmutS evolved in AZ) was 2 µg/mL. The “fold-change relative to starting MIC before treatment” value (MPAO1-ΔmutS [2]; MPAO1-ΔmutS evolved in AZ) was 1, the “Average MIC at end point” value (MPAO1-ΔmutS [2]; [7]) was 2 µg/mL and the “fold-change relative to starting MIC before treatment” value (MPAO1-ΔmutS [2]; [7]) was 1. For the same compound, the “Average MIC at end point” value (MPAO1-ΔmutS [2]; [8]) was 2 µg/mL, the “fold-change relative to starting MIC before treatment” value (MPAO1-ΔmutS [2]; [8]) was 1 and the “Average MIC at end point” value (MPAO1-ΔmutS [2]; [9]) was 2 µg/mL. For the same compound, the “fold-change relative to starting MIC before treatment” value (MPAO1-ΔmutS [2]; [9]) was 1, the “Average MIC at end point” value (MPAO1-ΔmutS [2]; MPAO1-ΔmutS evolved in COL) was 27 µg/mL and the “fold-change relative to starting MIC before treatment” value (MPAO1-ΔmutS [2]; MPAO1-ΔmutS evolved in COL) was 8. The “Average MIC at end point” value (MPAO1-ΔmutS [2]; MPAO1-ΔmutS evolved in Chl) was 2 µg/mL, the “fold-change relative to starting MIC before treatment” value (MPAO1-ΔmutS [2]; MPAO1-ΔmutS evolved in Chl) was 1 and the “Average MIC at end point” value (MPAO1-ΔmutS [2]; MPAO1-ΔmutS evolved in D-CONGA) was 3 µg/mL. For the same compound, the “fold-change relative to starting MIC before treatment” value (MPAO1-ΔmutS [2]; MPAO1-ΔmutS evolved in D-CONGA) was 1.33, the “Average MIC at end point” value (MPAO1-ΔmutS [2]; [10]) was 4 µg/mL and the “fold-change relative to starting MIC before treatment” value (MPAO1-ΔmutS [2]; [10]) was 2. For the same compound, the “Average MIC at end point” value (MPAO1-ΔmutS [2]; [11]) was 2 µg/mL, the “fold-change relative to starting MIC before treatment” value (MPAO1-ΔmutS [2]; [11]) was 1 and the “Average MIC at end point” value (MPAO1-ΔmutS [2]; [12]) was 2 µg/mL. The “fold-change relative to starting MIC before treatment” value (MPAO1-ΔmutS [2]; [12]) was 1, the “Average MIC at end point” value (MPAO1 [3]; MPAO1 evolved in AZ) was 3 µg/mL and the “fold-change relative to starting MIC before treatment” value (MPAO1 [3]; MPAO1 evolved in AZ) was 1.3. The “Average MIC at end point” value (MPAO1 [3]; MPAO1 evolved in AZ + COL) was 2 µg/mL, the “fold-change relative to starting MIC before treatment” value (MPAO1 [3]; MPAO1 evolved in AZ + COL) was 1 and the “Average MIC at end point” value (MPAO1 [3]; MPAO1 evolved in AZ + D-CONGA) was 2 µg/mL. The “fold-change relative to starting MIC before treatment” value (MPAO1 [3]; MPAO1 evolved in AZ + D-CONGA) was 1, the “Average MIC at end point” value (MPAO1 [3]; [13]) was 2 µg/mL and the “fold-change relative to starting MIC before treatment” value (MPAO1 [3]; [13]) was 1. The “Average MIC at end point” value (MPAO1 [3]; MPAO1 evolved in COL) was 2 µg/mL, the “fold-change relative to starting MIC before treatment” value (MPAO1 [3]; MPAO1 evolved in COL) was 1 and the “Average MIC at end point” value (MPAO1 [3]; MPAO1 evolved in Chl) was 2 µg/mL. The “fold-change relative to starting MIC before treatment” value (MPAO1 [3]; MPAO1 evolved in Chl) was 1, the “Average MIC at end point” value (MPAO1 [3]; MPAO1 evolved in D-CONGA) was 4 µg/mL and the “fold-change relative to starting MIC before treatment” value (MPAO1 [3]; MPAO1 evolved in D-CONGA) was 2.4. The “Average MIC at end point” value (MPAO1 [3]; MPAO1 evolved in D-CONGA-Q7) was 2 µg/mL, the “fold-change relative to starting MIC before treatment” value (MPAO1 [3]; MPAO1 evolved in D-CONGA-Q7) was 1 and the “Average MIC at end point” value (MPAO1 [3]; [14]) was 1 (1) μg/mL. The “fold-change relative to starting MIC before treatment” value (MPAO1 [3]; [14]) was 1 (1), the “Average MIC at end point” value (MPAO1 [3]; [15]) was 2 µg/mL and the “fold-change relative to starting MIC before treatment” value (MPAO1 [3]; [15]) was 1. For the same compound, the “Average MIC at end point” value (MPAO1-ΔmutL [6]; [16]) was 0.5 µg/mL, the “fold-change relative to starting MIC before treatment” value (MPAO1-ΔmutL [6]; [16]) was 0.25 and the “Average MIC at end point” value (MPAO1-ΔmutL [6]; [17]) was 2 µg/mL. For the same compound, the “fold-change relative to starting MIC before treatment” value (MPAO1-ΔmutL [6]; [17]) was 0.6, the “MIC, average of triplicates” value (MPAO1-ΔmutS [4]; strain ΔmutS) was 2 µg/mL and the “MIC, average of triplicates” value (MPAO1-ΔmutL [5]; strain ΔmutL) was 3 µg/mL.
